# Patent publication US10597388B2, “Pyridazinone herbicides” (FMC CORPORATION, priority 2014, dated 2020)
# Experiments:
# Format in all cases: in vivo
# [1] = tested on: galium (catchweed bedstraw, Galium aparine); assay: Test A greenhouse herbicide test, postemergence; details: for Plant response rating, Galium: 125 g ai/ha, 0 to 100 scale where 0 is no effect and 100 is complete control; for Galium plant response rating: 500 g ai/ha, 0 to 100 scale, 0 is no effect, 100 is complete control
# How it was run: (§1)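 Plants grown in loam soil/sand blend pots were treated postemergence at 2 to 10 cm height, one- to two-leaf stage, with formulated test chemicals. After approximately 10 d in a greenhouse, injury was rated visually against untreated controls on a 0 to 100 scale (0 no effect, 100 complete control).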
# [2] = tested on: blackgrass (Alopecurus myosuroides); assay: Test A greenhouse herbicide test, postemergence; details: for Plant response rating, Blackgrass: 125 g ai/ha, 0 to 100 scale where 0 is no effect and 100 is complete control; for Blackgrass plant response rating: 500 g ai/ha, 0 to 100 scale, 0 is no effect, 100 is complete control
# How it was run: as §1
# corn (Zea mays) = assay: Test A greenhouse herbicide test, pre- and postemergence; details: Postemergence; for Plant response rating, Corn: 125 g ai/ha, 0 to 100 scale where 0 is no effect and 100 is complete control; for Corn plant response rating: 500 g ai/ha, 0 to 100 scale, 0 is no effect, 100 is complete control
# Text: (§2) Seeds of plant species selected from barnyardgrass (Echinochloa crus-galli), kochia (Kochia scoparia), ragweed (common ragweed, Ambrosia elatior), ryegrass, Italian (Italian ryegrass, Lolium multiflorum), crabgrass, large (large crabgrass, Digitaria sanguinalis), foxtail, giant (giant foxtail, Setaria faberii), momingglory (Ipomoea spp.), pigweed (Amaranthus retroflexus), velvetleaf (Abutilon theophrasti), wheat (Triticum aestivum), and corn (Zea mays) were planted into a blend of loam soil and sand and treated preemergence with a directed soil spray using test chemicals formulated in a non-phytotoxic solvent mixture which included a surfactant.
# (§3) At the same time, plants selected from these crop and weed species and also blackgrass (Alopecurus myosuroides), and galium (catchweed bedstraw, Galium aparine) were planted in pots containing the same blend of loam soil and sand and treated with postemergence applications of test chemicals formulated in the same manner. Plants ranged in height from 2 to 10 cm and were in the one- to two-leaf stage for the postemergence treatment. Treated plants and untreated controls were maintained in a greenhouse for approximately 10 d, after which time all treated plants were compared to untreated controls and visually evaluated for injury. Plant response ratings, summarized in Table A, are based on a 0 to 100 scale where 0 is no effect and 100 is complete control. A dash (-) response means no test result.
# [3] = tested on: wheat (Triticum aestivum); assay: as above; details: Postemergence; for Plant response rating, Wheat: 125 g ai/ha, 0 to 100 scale where 0 is no effect and 100 is complete control; for Wheat plant response rating: 500 g ai/ha, 0 to 100 scale, 0 is no effect, 100 is complete control
# Text: as §2, §3
# [4] = tested on: ryegrass, Italian (Italian ryegrass, Lolium multiflorum); assay: as above
# Text: as §2, §3
# kochia (Kochia scoparia) = assay: as above
# Text: as §2, §3
# [5] = tested on: pigweed (Amaranthus retroflexus); assay: as above
# Text: as §2, §3
# [6] = tested on: foxtail, giant (giant foxtail, Setaria faberii); assay: as above
# Text: as §2, §3
# [7] = tested on: ragweed (common ragweed, Ambrosia elatior); assay: as above
# Text: as §2, §3
# [8] = tested on: barnyardgrass (Echinochloa crus-galli); assay: as above
# Text: as §2, §3
# [9] = tested on: sedge, umbrella (small-flower umbrella sedge, Cyperus difformis); assay: Test B flooded paddy test; details: 250 g ai/ha, Flood; visual rating on scale of 0 to 100 where 0 is no effect and 100 is complete control; 13 to 15 d after treatment
# Description: (§4) Plant species in the flooded paddy test selected from rice (Oryza sativa), sedge, umbrella (small-flower umbrella sedge, Cyperus difformis), ducksalad (Heteranthera limosa), and barnyardgrass (Echinochloa crus-galli) were grown to the 2-leaf stage for testing. At time of treatment, test pots were flooded to 3 cm above the soil surface, treated by application of test compounds directly to the paddy water, and then maintained at that water depth for the duration of the test. Treated plants and controls were maintained in a greenhouse for 13 to 15 d, after which time all species were compared to controls and visually evaluated. Plant response ratings, summarized in Table B, are based on a scale of 0 to 100 where 0 is no effect and 100 is complete control. A dash (-) response means no test result.
# rice (Oryza sativa) = assay: Test B flooded paddy test; details: 250 g ai/ha, Flood; visual rating on scale of 0 to 100 where 0 is no effect and 100 is complete control; 13 to 15 d after treatment
# Description: as §4
# [10] = tested on: barnyardgrass (Echinochloa crus-galli); assay: Test B flooded paddy test; details: 250 g ai/ha, Flood; visual rating on scale of 0 to 100 where 0 is no effect and 100 is complete control; 13 to 15 d after treatment
# Description: as §4
# [11] = tested on: ducksalad (Heteranthera limosa); assay: Test B flooded paddy test; details: 250 g ai/ha, Flood; visual rating on scale of 0 to 100 where 0 is no effect and 100 is complete control; 13 to 15 d after treatment
# Description: as §4
# [12] = Postemergence, 125 g ai/ha, 0 to 100 scale where 0 is no effect and 100 is complete control
# [13] = Postemergence, 500 g ai/ha, 0 to 100 scale, 0 is no effect, 100 is complete control
# [14] = Preemergence, 125 g ai/ha, 0 to 100 scale where 0 is no effect and 100 is complete control
# [15] = Preemergence, 500 g ai/ha, 0 to 100 scale, 0 no effect, 100 complete control
# [16] = Preemergence, 500 g ai/ha, 0 to 100 scale where 0 is no effect and 100 is complete control
SMILES,"Plant response rating, Galium [1]",Galium plant response rating [1],"Plant response rating, Blackgrass [2]",Blackgrass plant response rating [2],"Plant response rating, Corn (corn (Zea mays))",Corn plant response rating (corn (Zea mays)),"Plant response rating, Wheat [3]",Wheat plant response rating [3],"Plant response rating, Ryegrass, Italian [4, 12]","Ryegrass, Italian plant response rating [4, 13]","Ryegrass, Italian plant response rating [4, 14]","Plant response rating, Kochia (kochia (Kochia scoparia); [12])",Kochia plant response rating (kochia (Kochia scoparia); [13]),Kochia plant response rating (kochia (Kochia scoparia); [14]),"Plant response rating, Pigweed [5, 12]","Pigweed plant response rating [5, 13]","Pigweed plant response rating [5, 14]","Plant response rating, Foxtail, Giant [6, 12]","Foxtail, Giant plant response rating [6, 13]","Foxtail, Giant plant response rating [6, 14]",further results
CC(=O)Oc1c(C)nn(C)c(=O)c1-c1c(C)sc2cc(C)cc(C)c12 [Compound 44],30,70,0,0,0,0,0,0,0,0,0,0,0,0,0,0,0,0,0,0,"Plant response rating, Ryegrass, Italian [4, 15]: 0; Plant response rating, Kochia (kochia (Kochia scoparia); [15]): 0; Plant response rating, Pigweed [5, 15]: 0; Plant response rating, Foxtail, Giant [6, 15]: 0; Plant response rating, Ragweed [7, 12]: 0; Ragweed plant response rating [7, 13]: 0; Ragweed plant response rating [7, 14]: 0; Plant response rating, Ragweed [7, 15]: 10; Plant response rating, Barnyardgrass [8, 12]: 0; Barnyardgrass plant response rating [8, 13]: 0; Barnyardgrass plant response rating [8, 14]: 0; Plant response rating, Barnyardgrass [8, 15]: 0; Plant response rating, Sedge, Umbrella [9]: 0; Plant response rating, Rice (rice (Oryza sativa)): 0; Plant response rating, Barnyardgrass [10]: 0; Plant response rating, Ducksalad [11]: 0"
Cc1cc(C)c2c(-c3c(OC(=O)C(C)(C)C)c(C)nn(C)c3=O)c(C)sc2c1 [Compound 45],0,0,0,0,0,0,0,0,0,0,0,0,0,0,0,0,0,0,0,0,"Plant response rating, Ryegrass, Italian [4, 15]: 0; Plant response rating, Kochia (kochia (Kochia scoparia); [15]): 0; Plant response rating, Pigweed [5, 15]: 0; Plant response rating, Foxtail, Giant [6, 15]: 0; Plant response rating, Ragweed [7, 12]: 0; Ragweed plant response rating [7, 13]: 0; Ragweed plant response rating [7, 14]: 0; Plant response rating, Ragweed [7, 15]: 0; Plant response rating, Barnyardgrass [8, 12]: 0; Barnyardgrass plant response rating [8, 13]: 0; Barnyardgrass plant response rating [8, 14]: 0; Plant response rating, Barnyardgrass [8, 15]: 0; Plant response rating, Sedge, Umbrella [9]: 0; Plant response rating, Rice (rice (Oryza sativa)): 0; Plant response rating, Barnyardgrass [10]: 0; Plant response rating, Ducksalad [11]: 0"
Cc1ccc(-c2c(O)cnn(C)c2=O)c2ccccc12 [Compound 50],60,80,0,10,0,0,0,0,20,40,0,0,20,0,20,50,0,0,0,0,"Plant response rating, Ryegrass, Italian [4, 15]: 10; Plant response rating, Kochia (kochia (Kochia scoparia); [15]): 0; Plant response rating, Pigweed [5, 15]: 0; Plant response rating, Foxtail, Giant [6, 15]: 0; Plant response rating, Ragweed [7, 12]: 0; Ragweed plant response rating [7, 13]: 20; Ragweed plant response rating [7, 14]: 0; Plant response rating, Ragweed [7, 15]: 0; Plant response rating, Barnyardgrass [8, 12]: 0; Barnyardgrass plant response rating [8, 13]: 0; Barnyardgrass plant response rating [8, 14]: 0; Plant response rating, Barnyardgrass [8, 15]: 0; Plant response rating, Sedge, Umbrella [9]: 0; Plant response rating, Rice (rice (Oryza sativa)): 0; Plant response rating, Barnyardgrass [10]: 0; Plant response rating, Ducksalad [11]: 0"
COc1nn(C)c(=O)c(-c2cccc3ccccc23)c1O [Compound 55],100,100,70,80,0,20,0,0,100,100,100,90,100,70,70,90,70,70,90,80,"Plant response rating, Ryegrass, Italian [4, 15]: 100; Plant response rating, Kochia (kochia (Kochia scoparia); [15]): 100; Plant response rating, Pigweed [5, 15]: 100; Plant response rating, Foxtail, Giant [6, 15]: 100; Plant response rating, Ragweed [7, 12]: 90; Ragweed plant response rating [7, 13]: 100; Ragweed plant response rating [7, 14]: 90; Plant response rating, Ragweed [7, 15]: 100; Plant response rating, Barnyardgrass [8, 12]: 60; Barnyardgrass plant response rating [8, 13]: 90; Barnyardgrass plant response rating [8, 14]: 90; Plant response rating, Barnyardgrass [8, 15]: 90; Plant response rating, Sedge, Umbrella [9]: 0; Plant response rating, Rice (rice (Oryza sativa)): 0; Plant response rating, Barnyardgrass [10]: 0; Plant response rating, Ducksalad [11]: 0"
Cc1sc2ccccc2c1-c1c(OC(=O)OC(C)C)c(Cl)nn(C)c1=O [Compound 94],80,90,0,30,0,0,0,20,30,50,20,30,60,30,30,70,70,30,50,20,"Plant response rating, Ryegrass, Italian [4, 16]: 50; Plant response rating, Kochia (kochia (Kochia scoparia); [16]): 70; Plant response rating, Pigweed [5, 16]: 90; Plant response rating, Foxtail, Giant [6, 16]: 50; Plant response rating, Ragweed [7, 12]: 10; Ragweed plant response rating [7, 13]: 60; Ragweed plant response rating [7, 14]: 50; Plant response rating, Ragweed [7, 16]: 80; Plant response rating, Barnyardgrass [8, 12]: 0; Barnyardgrass plant response rating [8, 13]: 40; Barnyardgrass plant response rating [8, 14]: 0; Plant response rating, Barnyardgrass [8, 16]: 40; Plant response rating, Sedge, Umbrella [9]: 0; Plant response rating, Rice (rice (Oryza sativa)): 0; Plant response rating, Barnyardgrass [10]: 0; Plant response rating, Ducksalad [11]: 0"
